From patent publication US4239747A, “Dicarboxylic acid bis(3,5-dicarbamoyl-2,4,6-triiodoanilides) useful as x-ray contrast agents” (Schering Aktiengesellschaft, priority 1976, dated 1980)
In brackets after ≈: the same amount, converted by molar mass. Where two headings read alike, the source gives them in different places.

Tests used:
[1] = tested on: erythrocytes; experiment: Effect of the contrast media on erythrocyte morphology; details: 43 mg. Iodine/ml. Blood; score 0 (intact) to 5 (highest damage)
Experimental: Contrast medium solutions containing 300 mg. iodine/ml. were mixed in a ratio of 1:6 with heparinized blood. The final concentration of the contrast media was 43 mg. iodine/ml. The evaluation criterion was the change of the natural shape of the erythrocytes via echinocytes to spherocytes.

[2] = tested on: mice; experiment: Compatibility after intravenous injection in mice; assay type: in vivo; details: for Mortality/survival after intravenous injection: 6-10 mice, 10 g. iodine/kg, 300 mg. iodine/ml., 0.8 ml./min.
Experimental: 1. Compatibility After Intravenous Injection
Each of 6-10 mice weighing 20-22 g. was injected intravenously with the contrast medium being tested in the form of a solution at a concentration of 300 mg. of iodine/ml., a dosage of 10 g. iodine/kg. and an injection rate of 0.8 ml./min. Ionic agents were given as meglumine salts.

[3] = Solubility in water; assay type: physicochemical; details: for solubility: water
[4] = tested on: mice; experiment: Compatibility after intravenous injection in mice; assay type: in vivo
[5] = Osmotic pressure and osmolality of solutions of identical iodine concentration (300 mg. Iodine/ml.); assay type: physicochemical; details: at 37° C.
Description: The novel compounds are distinguished from other compounds by a lower diffusibility on account of their size.
Concentration, Osmotic Pressure, and Osmolality of Solutions of Identical

[6] = background statement; cited from earlier work
[7] = background statement; cited from earlier work; remark: listed apart in the source
[8] = Protein binding, human plasma (ultrafiltration method); assay type: in vitro ADME; details: human, plasma
Experimental: (§1) Binding of contrast media to proteins of human plasma was determined at a final plasma concentration of 1.2 mg. iodine/ml. using the ultrafiltration method. The novel, nonionic dimer E was bound only to a very minor extent of 1.4±2.4%.

[9] = tested on: rats; assay type: in vivo; details: 10 rats; 50 mg. iodine/ml.; 0.4 ml./kg.
Experimental: In a further evaluation according to Valzelli, "A Simple Method to Inject Drugs Intracerebrally;" Med. Exp. Vol. 11: 23-26, (1964), each of 10 rats (90-110 g.) were injected intracerebrally with contrast medium solutions of compounds A-E at an iodine concentration of 50 mg./ml. in a dosage of 0.4 ml./kg. Toxic effects of compounds A-D included grave anomalies in posture (attitude), torsional spasms, excitation, and death.

[10] = tested on: proteins of human plasma; experiment: Protein binding, human plasma (ultrafiltration method); assay type: in vitro ADME; details: n = 6; 1.2 mg. Iodine/ml.; ultrafiltration
Experimental: as §1

[11] = n = 6, 1.2 mg. Iodine/ml., ultrafiltration, read-out: Protein Binding Human Plasma (converted)

Structure (SMILES)	Effect on Erythrocyte Morphology, Damage Index [1]	solubility [3]	Compatibility After i.v. Injection in Mice, LD50 [4]	Osmolality [5]	Osmotic Pressure [5]	fraction unbound [8, 11]	other results
CN(CC(O)CO)C(=O)c1c(I)c(NC(=O)CCCCC(=O)Nc2c(I)c(C(=O)N(C)CC(O)CO)c(I)c(C(=O)N(C)CC(O)CO)c2I)c(I)c(C(=O)N(C)CC(O)CO)c1I (stereo not drawn) [Example 10, Adipic Acid bis[3,5-bis(2,3-Dihydroxypropyl-N-methylcarbamoyl)-2,4,6-triiodoanilide]]	0.11	130 mg/mL (≈ 82.5 mM)	–	–	–	–	Compatibility After i.v. Injection in Mice, LD50 ([2]; i.v., mice, determined with supersaturated solution): 30 g. Iodine/kg.; Solubility behaviour in words [3]: yields supersaturated solutions
CN(CC(O)CO)C(=O)c1c(I)c(NC(=O)COCCOCC(=O)Nc2c(I)c(C(=O)N(C)CC(O)CO)c(I)c(C(=O)N(C)CC(O)CO)c2I)c(I)c(C(=O)N(C)CC(O)CO)c1I (stereo not drawn) [Example 12, 3,6-Dioxasuberic Acid bis[3,5-bis(2,3-Dihydroxypropyl-N-methylcarbamoyl)-2,4,6-triiodoanilide]]	0.13	–	22 g. Iodine/kg.	216 mOsm/kg . H2 O	5.5 at.	–	–
CNC(=O)c1c(I)c(NC(=O)CCCCC(=O)Nc2c(I)c(C(=O)O)c(I)c(C(=O)NC)c2I)c(I)c(C(=O)O)c1I [Meglumine Iocarmate]	1.37	–	6.5 g. Iodine/kg.	1260 mOsm/kg . H2 O	32.0 at.	0.908	Resulting concentration in the urine [6]: relatively high resulting concentration in the urine; Osmotic pressure, relative [7]: somewhat lower osmotic pressure
CC(=O)Nc1c(I)c(NC(C)=O)c(I)c(C(=O)O)c1I [Meglumine Amidotrizoate]	2.57	–	6.5 g. Iodine/kg.	1520 mOsm/kg . H2 O	38.6 at.	0.968	–
CN(CC(O)CO)C(=O)c1c(I)c(C(=O)N(C)CC(O)CO)c(I)c(N(C)C(=O)COCC(=O)N(C)c2c(I)c(C(=O)N(C)CC(O)CO)c(I)c(C(=O)N(C)CC(O)CO)c2I)c1I (stereo not drawn) [Example 8, Oxaglutaric Acid bis[3,5-bis(2,3-Dihydroxypropyl-N-methylcarbamoyl)-2,4,6-triiodo-N-methylanilide]]	0.09	> 600 mg/mL	10 g. Iodine/kg.	–	–	–	–
O=C(CCCCC(=O)Nc1c(I)c(C(=O)NC(CO)CO)c(I)c(C(=O)NC(CO)CO)c1I)Nc1c(I)c(C(=O)NC(CO)CO)c(I)c(C(=O)NC(CO)CO)c1I [Example 11, Adipic Acid bis[3,5-bis(1,3-Dihydroxyisopropylcarbamoyl)-2,4,6-triiodoanilide]]	–	< 1 mg/mL	–	–	–	–	–
CNC(=O)c1c(I)c(NC(C)=O)c(I)c(C(=O)O)c1I [Meglumine Iothalamate]	–	–	6.5 g. Iodine/kg.	1650 mOsm/kg . H2 O	41.9 at.	–	fraction unbound [8]: 0.948
CN(CC(O)CO)C(=O)c1c(I)c(C(=O)N(C)CC(O)CO)c(I)c(N(C)C(=O)CC(=O)N(C)c2c(I)c(C(=O)N(C)CC(O)CO)c(I)c(C(=O)N(C)CC(O)CO)c2I)c1I (stereo not drawn) [Example 9, Malonic Acid bis[3,5-bis(2,3-Dihydroxypropyl-N-methylcarbamoyl)-2,4,6-triiodo-N-methylanilide]]	–	–	–	197 mOsm/kg . H2 O	5.0 at.	–	Solubility in water [3]: more than 60 g./150 ml. of solution
CN(CC(O)CO)C(=O)c1c(I)c(NC(=O)C(=O)Nc2c(I)c(C(=O)N(C)CC(O)CO)c(I)c(C(=O)N(C)CC(O)CO)c2I)c(I)c(C(=O)N(C)CC(O)CO)c1I (stereo not drawn) [Example 1, oxalic acid bis[3,5-bis(2,3-dihydroxypropyl-N-methylcarbamoyl)-2,4,6-triiodoanilide]]	0.33	–	20 g. Iodine/kg.	175 mOsm/kg . H2 O	4.5 at.	0.986	Mortality/survival after intravenous injection [2]: All mice survived; solubility ([3]; room temperature): > 600 mg/mL; Toxic effects after intracerebral injection [9]: caused none of these effects in any of the animals; Protein Binding Human Plasma [10]: 1.4±2.4%
CC(=O)Nc1c(I)c(C(=O)N[C@H]2C(O)O[C@H](CO)[C@@H](O)[C@@H]2O)c(I)c(N(C)C(C)=O)c1I (stereo partly drawn) [Metrizamide, 2-(3-acetamido-5-N-methylacetamido-2,4,6-triiodobenzamido)-2-deoxy-D-glucose]	–	–	14 g. Iodine/kg.	485 mOsm/kg . H2 O	12.3 at.	–	Mortality/survival after intravenous injection [2]: one animal died; fraction unbound [8]: 0.938
